# Measured values as given in patent US8906909B2 (Curis, Inc., priority 2009, dated 2014).
# Read-outs that look alike come from different tables or passages of the source.
# What was measured:
# [1] = tested on: HDACs (HeLa cell nuclear extracts); experiment: HDAC enzymatic activity, Biomol Color de Lys system; type: biochemical
# Method in brief: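 HeLa nuclear extract as HDAC source with Color de Lys substrate in 50 mM Tris/Cl pH 8.0, 137 mM NaCl, 2.7 mM KCl, 1 mM MgCl2. Serially diluted compounds reacted 1 h at 25 °C, then developer added; fluorescence (Ex 350–380/Em 440–460) fitted sigmoidally for IC50.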
# HCT-118 cells = experiment: Cell proliferation assay Method A (ATPlite), HCT-118; type: cell-based; settings: 72 hours, read-out: antiproliferative activity IC50, HCT-118
# Description: (§1) Cancer cell lines were plated at 5,000 to 10,000 per well in 96-well flat bottomed plates with various concentration of compounds. The cells were incubated with compounds for 72 hours in the presence of 0.5% of fetal bovine serum. Growth inhibition was accessed by adenosine triphosphate (ATP) content assay using Perkin Elmer ATPlite kit. ATPlite is an ATP monitoring system based on firefly luciferase. Briefly, 25 μl of mammalian cell lysis solution was added to 50 μl of phenol red-free culture medium per well to lyse the cells and stabilize the ATP. 25 μl of substrate solution was then added to the well and subsequently the luminescence was measured.
# Sk-Mel-28 cells [2] = experiment: Cell proliferation assay Method A (ATPlite), Sk-Mel-28; type: cell-based; settings: Homo sapiens, 72 hours, read-out: antiproliferative activity IC50, Sk-Mel-28
# Description: as §1
# BT474 cells = experiment: Cell proliferation assay Method B, BT474; type: cell-based; settings: Homo sapiens, BT-474, 72 hours, read-out: antiproliferative activity IC50, BT474
# Description: (§2) Cancer cell lines were plated at 5,000 to 10,000 per well in 96-well flat bottomed plates with various concentration of compounds. The cells were incubated with compounds for 72 hours in the presence of 0.5% of fetal bovine serum. Growth inhibition was accessed by adenosine triphosphate (ATP) content assay using Promega CellTiter-Glo kit. Promega CellTiter-Glo kit is an ATP monitoring system based on firefly luciferase. Briefly, 16 μl of mammalian cell lysis and substrate solution was added to 84 μl of culture medium per well to lyse the cells and stabilize the ATP. The mixture was shaken and incubated for 30 minutes and subsequently the luminescence was measured.
# Sk-Mel-28 cells [3] = experiment: Cell proliferation assay Method B, Sk-Mel-28; type: cell-based; settings: Homo sapiens, Melanoma, 72 hours, read-out: antiproliferative activity IC50, Sk-Mel-28
# Description: as §2
# H1993 cells [4] = experiment: Cell proliferation assay Method A (ATPlite), H1993; type: cell-based; settings: Homo sapiens, NCI-H1993, 72 hours, read-out: antiproliferative activity IC50, H1993
# Description: as §1
# BT-474 cells = experiment: Cell proliferation assay Method A (ATPlite), BT-474; type: cell-based; settings: Homo sapiens, 72 hours, read-out: antiproliferative activity IC50, BT-474
# Description: as §1
# H1993 cells [5] = experiment: Cell proliferation assay Method B, H1993; type: cell-based; settings: Homo sapiens, NCI-H1993; NSCLC; H1993; 72 hours, 0.5% fetal bovine serum, CellTiter-Glo; read-out: antiproliferative activity IC50, H1993
# Description: as §2
# RPMI-8226 cells = experiment: Cell proliferation assay Method B, RPMI-8226; type: cell-based; settings: Homo sapiens, Multiple Myeloma, 72 hours, 0.5% fetal bovine serum, CellTiter-Glo, read-out: antiproliferative activity IC50, RPMI-8226
# Description: as §2
# A375 cells = experiment: Cell proliferation assay Method B, A375; type: cell-based; settings: Homo sapiens, A-375; Melanoma; Method B; 72 hours; read-out: antiproliferative activity IC50, A375
# Description: as §2
# [6] = Sk-Mel-28, 0.5% fetal bovine serum, CellTiter-Glo
SMILES,IC50 [1] [nM],IC50 (HCT-118 cells) [nM],IC50 (Sk-Mel-28 cells [2]) [nM],"IC50 (BT474 cells; Breast, Method B) [nM]","IC50 (Sk-Mel-28 cells [3]; SK-MEL-28, Method B) [nM]",IC50 (H1993 cells [4]) [nM],IC50 (BT-474 cells) [nM],melting point [°C],IC50 (H1993 cells [5]) [nM],"IC50 (BT474 cells; BT474, 0.5% fetal bovine serum, CellTiter-Glo) [nM]",IC50 (Sk-Mel-28 cells [3]; [6]) [nM],IC50 (RPMI-8226 cells) [nM],IC50 (A375 cells) [nM]
CC(c1cc2nc(-c3cccc4[nH]ncc34)nc(N3CCOCC3)c2s1)N(C)c1ncc(C(=O)NO)cn1 (centres unmarked) [Compound 70],< 100,< 100,< 100,< 10,100 to 1000,< 100,< 100,–,–,–,–,–,–
"CN(C)c1ncc(-c2nc(N3CCOCC3)c3sc(CN(C)c4ncc(C(=O)NO)cn4)cc3n2)cn1 [Compound 117, 2-(((2-(2-(dimethylamino)pyrimidin-5-yl)-4-morpholinothieno[3,2-d]pyrimidin-6-yl)methyl)(methyl)amino)-N-hydroxypyrimidine-5-carboxamide]",< 100,< 100,< 100,–,–,< 100,< 100,200 to 206,–,–,–,–,–
"Cc1nc(N)ncc1-c1nc(N2CCOCC2)c2sc(CN(C)c3ncc(C(=O)NO)cn3)cc2n1 [Compound 125, 2-(((2-(2-amino-4-methylpyrimidin-5-yl)-4-morpholinothieno[3,2-d]pyrimidin-6-yl)methyl)(methyl)amino)-N-hydroxypyrimidine-5-carboxamide]",< 100,< 100,100 to 1000,–,–,100 to 1000,< 100,195 to 198,100 to 1000,10 to 100,100 to 1000,–,–
"CN(Cc1cc2nc(-c3ccc(N)cc3Cl)nc(N3CCOCC3)c2s1)c1ncc(C(=O)NO)cn1 [Compound 284, 2-(((2-(4-Amino-2-chlorophenyl)-4-morpholinothieno[3,2-d]pyrimidin-6-yl)methyl)(methyl)amino)-N-hydroxypyrimidine-5-carboxamide]",< 100,–,–,–,–,–,–,179 to 183,–,–,–,< 10,–
"CN(Cc1cc2nc(-c3cccc(OCCO)c3)nc(N3CCOCC3)c2s1)c1ncc(C(=O)NO)cn1 [Compound 289, 2-({2-[3-(2-Hydroxy-ethoxy)-phenyl]-4-morpholin-4-yl-thieno[3,2-d]pyrimidin-6-ylmethyl}-methyl-amino)-pyrimidine-5-carboxylic acid hydroxyamide]",< 100,–,–,–,–,–,–,148 to 152,–,–,< 10,< 10,–
"CN(Cc1cc2nc(-c3cc(O)ccc3F)nc(N3CCOCC3)c2s1)c1ncc(C(=O)NO)cn1 [Compound 292, 2-(((2-(2-Fluoro-5-hydroxyphenyl)-4-morpholinothieno[3,2-d]pyrimidin-6-yl)methyl)(methyl)amino)-N-hydroxypyrimidine-5-carboxamide]",< 100,–,–,–,–,–,–,250 to 255,–,–,–,–,< 10
"CC(O)c1cccc(-c2nc(N3CCOCC3)c3sc(CN(C)c4ncc(C(=O)NO)cn4)cc3n2)c1 (centres unmarked) [Compound 294, N-Hydroxy-2-(((2-(3-(1-hydroxyethyl)phenyl)-4-morpholinothieno[3,2-d]pyrimidin-6-yl)methyl)(methyl)amino)pyrimidine-5-carboxamide]",< 100,–,–,–,–,–,–,–,–,–,< 10,< 10,–
"C[C@H](O)c1cccc(-c2nc(N3CCOCC3)c3sc(CN(C)c4ncc(C(=O)NO)cn4)cc3n2)c1 [Compound 296, (S)—N-Hydroxy-2-(((2-(3-(1-hydroxyethyl)phenyl)-4-morpholinothieno[3,2-d]pyrimidin-6-yl)methyl)(methyl)amino)pyrimidine-5-carboxamide]",< 100,–,–,–,–,–,–,168 to 172,–,–,–,< 10,–
"CNc1ccc(-c2nc(N3CCOCC3)c3sc(C(=O)NCC4CCN(c5ncc(C(=O)NO)cn5)CC4)cc3n2)cn1 [Compound 308, N-((1-(5-(Hydroxycarbamoyl)pyrimidin-2-yl)piperidin-4-yl)methyl)-2-(6-(methylamino)pyridin-3-yl)-4-morpholinothieno[3,2-d]pyrimidine-6-carboxamide]",< 100,–,–,–,–,–,–,215 to 218,–,–,–,100 to 1000,–
